Results published in ChEMBL document CHEMBL1201862, “PubChem BioAssay data set” (2004).
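Compound exposure: 48 hours, 5 concentrations, 96-well plates. GI50 is the concentration that inhibits growth by half.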 Calls of active or inactive are those of the source. No stated cut-off is given here; in the data, active = GI50 up to about 1.1 µM and inactive = higher.

Columns and labels:
Assay in all cases: DTP human tumour cell line panel, 48 h
SK-MEL-28 = tested on: SK-MEL-28
HCT-116 = tested on: HCT-116
SNB-75 = tested on: SNB-75
M19-MEL = tested on: M19-MEL
RXF 393 = tested on: RXF 393
Malme-3M = tested on: Malme-3M
NCI-H522 = tested on: NCI-H522
SF-539 = tested on: SF-539
SK-MEL-2 = tested on: SK-MEL-2
786-0 = tested on: 786-0
SF-295 = tested on: SF-295
HCT-15 = tested on: HCT-15
EKVX = tested on: EKVX
NCI-H460 = tested on: NCI-H460
CCRF-CEM = tested on: CCRF-CEM
T47D = tested on: T47D
NCI/ADR-RES = tested on: NCI/ADR-RES
Hs-578T = tested on: Hs-578T
MDA-N = tested on: MDA-N
DU-145 = tested on: DU-145

## COc1cc(C2C(C(=O)Nc3ccc([N+](=O)[O-])cc3)=C(C)NC(C)=C2C(=O)Nc2ccc([N+](=O)[O-])cc2)ccc1O
SK-MEL-28
  GI50: 4.16 µM (inactive)
HCT-116
  GI50: 16 µM (inactive)
SNB-75
  GI50: 30.5 µM (inactive)
M19-MEL
  GI50: 19.3 µM (inactive)
RXF 393
  GI50: 19.5 µM (inactive)
Malme-3M
  GI50: 20.8 µM (inactive)
NCI-H522
  GI50: 15.8 µM (inactive)
SF-539
  GI50: 20.9 µM (inactive)
SK-MEL-2
  GI50: 15.9 µM (inactive)
786-0
  GI50: 29.1 µM (inactive)
SF-295
  GI50: 24.7 µM (inactive)
HCT-15
  GI50: 19.1 µM
EKVX
  GI50: 39.1 µM (inactive)
NCI-H460
  GI50: 23.3 µM (inactive)
CCRF-CEM
  GI50: 30.3 µM (inactive)

## CC(=O)C1=C(C)Cn2c(=O)c3ccccc3c(=O)n2C1
SK-MEL-28
  GI50: > 100 µM (inactive)
HCT-116
  GI50: > 100 µM (inactive)
SNB-75
  GI50: > 100 µM (inactive)
M19-MEL
  GI50: > 100 µM (inactive)
RXF 393
  GI50: > 100 µM (inactive)
Malme-3M
  GI50: > 100 µM (inactive)
NCI-H522
  GI50: > 100 µM (inactive)
SF-539
  GI50: > 100 µM (inactive)
SK-MEL-2
  GI50: > 100 µM (inactive)
786-0
  GI50: > 100 µM (inactive)
SF-295
  GI50: > 100 µM (inactive)
HCT-15
  GI50: > 100 µM
EKVX
  GI50: > 100 µM (inactive)
NCI-H460
  GI50: > 100 µM (inactive)
CCRF-CEM
  GI50: > 100 µM (inactive)

## N#C/C(=C\c1cc2ccccc2c2ccccc12)c1ccccc1
SK-MEL-28
  GI50: 24 µM (inactive)
HCT-116
  GI50: 5.3 µM (inactive)
SNB-75
  GI50: 2.31 µM (inactive)
M19-MEL
  GI50: 7.29 µM (inactive)
RXF 393
  GI50: 5.66 µM (inactive)
Malme-3M
  GI50: 4.86 µM (inactive)
NCI-H522
  GI50: 5.83 µM (inactive)
SF-539
  GI50: 6.15 µM (inactive)
SK-MEL-2
  GI50: 3.39 µM (inactive)
786-0
  GI50: 5.43 µM (inactive)
SF-295
  GI50: 5.93 µM (inactive)
HCT-15
  GI50: 5.24 µM
EKVX
  GI50: 20 µM (inactive)
NCI-H460
  GI50: 4.67 µM (inactive)
CCRF-CEM
  GI50: 3.59 µM (inactive)

## CN(C)CCC(CCN(C)C)=NOC(=O)c1ccccc1
SK-MEL-28
  GI50: > 100 µM (inactive)
HCT-116
  GI50: > 100 µM (inactive)
SNB-75
  GI50: > 100 µM (inactive)
M19-MEL
  GI50: > 100 µM (inactive)
RXF 393
  GI50: > 100 µM (inactive)
Malme-3M
  GI50: > 100 µM (inactive)
NCI-H522
  GI50: > 100 µM (inactive)
SF-539
  GI50: > 100 µM (inactive)
SK-MEL-2
  GI50: > 100 µM (inactive)
786-0
  GI50: > 100 µM (inactive)
SF-295
  GI50: > 100 µM (inactive)
HCT-15
  GI50: > 100 µM
EKVX
  GI50: > 100 µM (inactive)
NCI-H460
  GI50: > 100 µM (inactive)
CCRF-CEM
  GI50: > 100 µM (inactive)

## Brc1ccc(/C=N/C23CC4CC(CC(C4)C2)C3)cc1
SK-MEL-28
  GI50: > 100 µM (inactive)
HCT-116
  GI50: > 100 µM (inactive)
SNB-75
  GI50: > 100 µM (inactive)
M19-MEL
  GI50: > 100 µM (inactive)
RXF 393
  GI50: > 100 µM (inactive)
Malme-3M
  GI50: > 100 µM (inactive)
NCI-H522
  GI50: > 100 µM (inactive)
SF-539
  GI50: > 100 µM (inactive)
SK-MEL-2
  GI50: > 100 µM (inactive)
786-0
  GI50: > 100 µM (inactive)
SF-295
  GI50: > 100 µM (inactive)
HCT-15
  GI50: > 100 µM
EKVX
  GI50: > 100 µM (inactive)
NCI-H460
  GI50: > 100 µM (inactive)
CCRF-CEM
  GI50: > 100 µM (inactive)

## N#C/C(=C\c1c[nH]c2ccccc12)C(=O)c1ccc(O)c(O)c1
T47D
  GI50: 31 µM (inactive)
SK-MEL-28
  GI50: 47.3 µM (inactive)
HCT-116
  GI50: 31.4 µM (inactive)
SNB-75
  GI50: 41 µM (inactive)
M19-MEL
  GI50: 83.2 µM (inactive)
RXF 393
  GI50: 38.9 µM (inactive)
Malme-3M
  GI50: > 47.9 µM (inactive)
NCI/ADR-RES
  GI50: 20.5 µM (inactive)
NCI-H522
  GI50: 13.5 µM (inactive)
SF-539
  GI50: 25.6 µM (inactive)
SK-MEL-2
  GI50: > 36.7 µM (inactive)
Hs-578T
  GI50: 47.2 µM (inactive)
786-0
  GI50: 22.8 µM (inactive)
SF-295
  GI50: 14.6 µM (inactive)
MDA-N
  GI50: 47.1 µM (inactive)
HCT-15
  GI50: 22.9 µM
EKVX
  GI50: 34.8 µM (inactive)
NCI-H460
  GI50: 24.5 µM (inactive)
DU-145
  GI50: 27.4 µM (inactive)
CCRF-CEM
  GI50: 5.87 µM (inactive)
